In US20220289728A1, “MODULATORS OF TREX1” (Constellation Pharmaceuticals, Inc., priority 2019, published 2022):

How the values were obtained:
full length human TREX1 = target: T1, full length human TREX1 (Homo sapiens, UniProt Q9NSU2); assay: TREX1 Biochemical Assay (fluorescence, dsDNA substrate degradation); conditions: 150 pM TREX1, 60 nM dsDNA substrate, 25 minutes at room temperature
T1 construct: N-terminally His-Tev tagged full length human TREX1; His-TEV (His tag with TEV site) (N); made in house; host or cells: E. coli
T1 sequence (Q9NSU2 1-314): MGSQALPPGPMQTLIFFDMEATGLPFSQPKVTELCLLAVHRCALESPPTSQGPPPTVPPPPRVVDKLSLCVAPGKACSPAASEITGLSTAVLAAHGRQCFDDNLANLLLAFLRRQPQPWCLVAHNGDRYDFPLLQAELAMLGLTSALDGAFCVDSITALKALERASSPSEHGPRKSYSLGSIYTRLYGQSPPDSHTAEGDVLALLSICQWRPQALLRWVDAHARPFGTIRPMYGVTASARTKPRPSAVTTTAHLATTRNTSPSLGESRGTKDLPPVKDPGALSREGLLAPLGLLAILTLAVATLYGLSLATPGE
Description: Degradation of the dsDNA liberates free fluorophore to produce a fluorescent signal. Specifically, 7.5 μL of N-terminally His-Tev tagged full length human TREX1 (expressed in E. coli and purified in house) in reaction buffer (50 mM Tris (pH 7.4), 150 mM NaCl, 2 mM DTT, 0.1 mg/mL BSA, 0.01% (v/v) Tween-20 and 100 mM MgCl2) was added to a 384-well Black ProxiPlate Plus (Perkin Elmer) which already contained compound (150 nL) at varying concentrations as a 10 point dose-response in DMSO. To this was added 7.5 μL of dsDNA substrate (Strand A: 5′ TEX615/GCT AGG CAG 3′; Strand B: 5′ CTG CCT AGC/IAbRQSp (Integrated DNA Technologies)) in reaction buffer. Final concentrations were 150 pM TREX1, 60 nM dsDNA substrate in reaction buffer with 1.0% DMSO (v/v). After 25 minutes at room temperature, reactions were quenched by the addition of 5 μL of stop buffer (same as reaction buffer plus 200 mM EDTA). Final concentrations in the quenched reaction were 112.5 pM TREX1, 45 nM DNA and 50 mM EDTA in a volume of 20 μL. After a 5-minute incubation at room temperature, plates were read in a laser sourced Envision (Perkin-Elmer), measuring fluorescence at 615 nm following excitation w/570 nm light. IC50 values were calculated by comparing the measured fluorescence at 615 nm ratio relative to control wells pre-quenched w/stop buffer (100% inhibition) and no inhibitor (0% inhibition) controls as using non-linear least square four parameter fits and either Genedata or GraphPad Prism (GraphPad Software, Inc.).

[1] = target: T2, human TREX2 (residues M44-A279) (Homo sapiens, UniProt Q9BQ50); assay: TREX2 Biochemical Assay (fluorescence, dsDNA substrate degradation); conditions: 2.5 nM TREX2, 60 nM dsDNA substrate, 25 minutes at room temperature
T2 construct: human TREX2 (residues M44-A279, expressed in E. coli); His-TEV (His tag with TEV site) (N); made in house; host or cells: E. coli
T2 sequence (Q9BQ50 44-279 isoform Q9BQ50-1): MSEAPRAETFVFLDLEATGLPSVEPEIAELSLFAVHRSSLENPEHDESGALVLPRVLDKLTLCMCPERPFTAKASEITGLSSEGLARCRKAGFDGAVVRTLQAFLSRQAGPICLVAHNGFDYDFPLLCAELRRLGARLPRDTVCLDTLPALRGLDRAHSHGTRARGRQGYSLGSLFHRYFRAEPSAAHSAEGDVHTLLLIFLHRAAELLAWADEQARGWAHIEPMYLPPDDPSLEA
Description: Degradation of the dsDNA liberates free fluorophore to produce a fluorescent signal. Specifically, 7.5 μL of N-terminally His-Tev tagged human TREX2 (residues M44-A279, expressed in E. coli and purified in house) in reaction buffer (50 mM Tris (pH 7.4), 150 mM NaCl, 2 mM DTT, 0.1 mg/mL BSA, 0.01% (v/v) Tween-20 and 100 mM MgCl2) was added to a 384-well Black ProxiPlate Plus (Perkin Elmer) which already contained compound (150 nL) at varying concentrations as a 10 point dose-response in DMSO. To this was added 7.5 μL of dsDNA substrate (Strand A: 5′ TEX615/GCT AGG CAG 3′; Strand B: 5′ CTG CCT AGC/IAbRQSp (IDT)) in reaction buffer. Final concentrations were 2.5 nM TREX2, 60 nM dsDNA substrate in reaction buffer with 1.0% DMSO (v/v). After 25 minutes at room temperature, reactions were quenched by the addition of 5 μL of stop buffer (same as reaction buffer plus 200 mM EDTA). Final concentrations in the quenched reaction mixture were […] TREX2, 45 nM DNA and 50 mM EDTA in a volume of 20 μL. After a 5-minute incubation at room temperature, plates were read in a laser sourced Envision (Perkin-Elmer), measuring fluorescence at 615 nm following excitation w/570 nm light. IC50 values were calculated by comparing the measured fluorescence at 615 nm ratio relative to control wells pre-quenched w/stop buffer (100% inhibition) and no inhibitor (0% inhibition) controls as using non-linear least square four parameter fits and either Genedata or GraphPad Prism (GraphPad Software, Inc.).

HCT116 dual cells = assay: HCT116 Cell Assay (Lucia luciferase reporter of Type I interferon induction); assay type: cell-based, human; conditions: pBR322/BstNI DNA transfection, Lucia luciferase at 48 h, relative to 10 uM compound 39
Description: HCT116 dual cells (Invivogen, San Diego, Calif., USA) are derived from the human HCT116 colorectal carcinoma cell line. Cells have been selected for the stable integration of SEAP and Luciferase reporter genes, which expression is under the control of 5 tandem response elements for NF-KB/AP1 and STAT1/STAT2, respectively. The cell line was used to monitor Type I interferon induction and subsequent signaling by measuring the activity of the Lucia luciferase secreted in the culture medium.
HCT116 cells were plated in 96-well plate(s) at 40,000 cells/well in 100 uL DMEM supplemented with 10% FBS and 25 mM Hepes (pH 7.2-7.5). After overnight settling, cells were treated with TREX1i for 4 h (maximum DMSO fraction was 0.1%) before 1.25 ug/mL pBR322/BstNI restriction digest (New England Biolabs, Ipswich, Mass., USA) was transfected with Lipofectamine LTX (ThermoFisher, Grand Island, N.Y., USA), according to product manual recommendations. Briefly, Lipofectamine LTX (0.4 uL/well) was diluted in OptiMEM (5 uL/well). pBR322/BstNI (100 ng/well) was diluted in OptiMEM (5 uL/well) before Plus reagent (0.1 uL/100 ng DNA) was added. After 5 min incubation at room temperature, the DNA mixture was mixed dropwise with the diluted Lipofectamine LTX. After an additional 10 min incubation, the transfection mix (10 uL/well) was added to the cells. Cells were maintained at 37° C. for 48 h before monitoring the Lucia Luciferase activity from the cell culture medium. EC50 values were calculated by comparing the measured luminescence relative to 10 uM compound 39 (100% inhibition) and no inhibitor (0% inhibition) controls using non-linear least-squares four parameter fits in either Genedata Screener or GraphPad Prism (GraphPad Software, Inc.).

[2] = Homo sapiens, HCT-116, 4 h pre-treatment

IC50 (full length human TREX1) [nM] | IC50 [1] [nM] | EC50 (HCT116 dual cells; [2]) [µM] | EC50 (HCT116 dual cells; 4 h pre-treatment) [µM] | Compound
< 100 | 1000 to 10000 | 10 to 100 | – | Cc1nn(C)cc1-c1cnc(CN(C)c2nc(C(=O)Nc3cnoc3)c(O)c(=O)n2C)cn1 [Example 80]
< 100 | < 1000 | < 1 | – | CN(c1nc(C(=O)Nc2cnoc2)c(O)c(=O)n1C)C(c1ccccc1)c1cccc(C#N)c1 (single isomer, unassigned) [Example 50]
100 to 1000 | 1000 to 10000 | 10 to 100 | – | CN(Cc1ccccn1)c1nc(C(=O)Nc2cnoc2)c(O)c(=O)n1C [Example 22]
< 100 | 1000 to 10000 | 1 to 10 | – | CN(Cc1cccc2c1cnn2C)c1nc(C(=O)Nc2cnoc2)c(O)c(=O)n1C [Example 31]
< 100 | < 1000 | – | < 1 | CN(c1nc(C(=O)Nc2cnoc2)c(O)c(=O)n1C)C(c1ccccc1)c1ccccc1C#N (single isomer, unassigned) [Example 86]
< 100 | < 1000 | < 1 | – | CN(c1nc(C(=O)Nc2cnoc2)c(O)c(=O)n1C)C(c1ccccc1)c1ccccn1 (single isomer, unassigned) [Example 41]
< 100 | < 1000 | 1 to 10 | – | Cc1ccc(C(c2ccccc2)N(C)c2nc(C(=O)Nc3cnoc3)c(O)c(=O)n2C)cn1 (single isomer, unassigned) [Example 43]
< 100 | < 1000 | – | < 1 | Cc1ccc(C(c2ccccc2)N(C)c2nc(C(=O)Nc3cnoc3)c(O)c(=O)n2C)cn1 (single isomer, unassigned) [Example 44]
< 100 | 1000 to 10000 | 1 to 10 | – | CN(Cc1cccc(Cl)c1)c1nc(C(=O)Nc2cnoc2)c(O)c(=O)n1C [Example 8]
< 100 | 1000 to 10000 | 10 to 100 | – | CC(C)N(Cc1ccccc1)c1nc(C(=O)Nc2cnoc2)c(O)c(=O)n1C [Example 29]
< 100 | < 1000 | – | 1 to 10 | CCN(c1nc(C(=O)Nc2cnoc2)c(O)c(=O)n1C)C(c1ccccc1)c1ccccc1Cl (single isomer, unassigned) [Example 92]
< 100 | 1000 to 10000 | 10 to 100 | – | Cc1c(-c2ccncc2CN(C)c2nc(C(=O)Nc3cnoc3)c(O)c(=O)n2C)cnn1C [Example 35]
< 100 | < 1000 | – | < 1 | CN(c1nc(C(=O)Nc2cnoc2)c(O)c(=O)n1C)C(c1ccccc1)c1ncccc1Cl (single isomer, unassigned) [Example 54]
< 100 | 1000 to 10000 | 10 to 100 | – | CN(Cc1ccccc1-c1cnn(C)c1)c1nc(C(=O)Nc2cnoc2)c(O)c(=O)n1C [Example 78]

More lines, now with the values behind:

Compound | IC50 (full length human TREX1) [nM] | IC50 [1] [nM] | EC50 (HCT116 dual cells; [2]) [µM] | EC50 (HCT116 dual cells; 4 h pre-treatment) [µM]
C[C@@H](c1ccccc1)N(C)c1nc(C(=O)Nc2cnoc2)c(O)c(=O)n1C [Example 28] | < 100 | 1000 to 10000 | 1 to 10 | –
C[C@H](c1ccccc1)N(C)c1nc(C(=O)Nc2cnoc2)c(O)c(=O)n1C [Example 27] | < 100 | < 1000 | 1 to 10 | –
CN(Cc1ccc(Cl)c(Cl)c1)c1nc(C(=O)Nc2cnoc2)c(O)c(=O)n1C [Example 7] | < 100 | 1000 to 10000 | 1 to 10 | –
Cc1cccc(Cl)c1C(c1ccccn1)N(C)c1nc(C(=O)Nc2cnoc2)c(O)c(=O)n1C (single isomer, unassigned) [Example 63] | < 100 | < 1000 | – | 1 to 10
CN(Cc1ccccc1C(F)(F)F)c1nc(C(=O)Nc2cnoc2)c(O)c(=O)n1C [Example 11] | < 100 | 1000 to 10000 | 1 to 10 | –
CN(c1nc(C(=O)Nc2cnoc2)c(O)c(=O)n1C)C(c1ccccc1Cl)C1CC1 (single isomer, unassigned) [Example 68] | < 100 | < 1000 | < 1 | –
2-(dibenzylamino)-5-ethoxy-N-(isoxazol-4-yl)-1-methyl-6-oxo-1,6-dihydropyrimidine-4-carboxamide [Example 1] | < 100 | < 1000 | – | 1 to 10
CN(c1nc(C(=O)Nc2cnoc2)c(O)c(=O)n1C)C(c1ccccn1)c1ccccc1Cl (single isomer, unassigned) [Example 57] | < 100 | < 1000 | – | < 1
CN(c1nc(C(=O)Nc2cnoc2)c(O)c(=O)n1C)C(c1ccccc1)C1CCOCC1 (single isomer, unassigned) [Example 46] | < 100 | 1000 to 10000 | – | 1 to 10
Cc1nn(C)cc1-c1cncc(CN(C)c2nc(C(=O)Nc3cnoc3)c(O)c(=O)n2C)n1 [Example 79] | < 100 | 1000 to 10000 | 10 to 100 | –
CN(Cc1cccc(C(F)(F)F)c1)c1nc(C(=O)Nc2cnoc2)c(O)c(=O)n1C [Example 10] | < 100 | 1000 to 10000 | 10 to 100 | –
CN(Cc1ccccc1Cl)c1nc(C(=O)Nc2cnoc2)c(O)c(=O)n1C [Example 74] | < 100 | 1000 to 10000 | 1 to 10 | –
